Patent US20090042240A1, “RAPID DETECTION OF ANTIMICROBIAL DRUG RESIDUES” (priority 2006, published 2009)

Assays:
[1] = system: Escherichia coli; conditions: additional study 1997; microorganism frozen in skimmed milk, cells washed with saline; cited from earlier work
[2] = cited from earlier work; for Lowest official MRL: official Maximum Residue Limit, unit assumed; for MRL: MRL stated by the European Community
[3] = system: Escherichia coli strains; conditions: Choi et al. 1999, animal tissues; cited from earlier work
[4] = system: Escherichia coli ATCC 11303; conditions: milk; Escherichia coli ATCC 11303 frozen in 10% glycerol; cited from earlier work
[5] = system: Escherichia coli strain ATCC 11303; assay: Liquid based microbial screening test for quinolones (Example 2); format: cell-based; conditions: spiked demineralized water, 100 μl sample, 37° C., 4 hours and 45 minutes, colour change purple to yellow
Description: In this experiment a liquid based microbial screenings test for the detection of quinolones is described. The quinolone medium used in this experiment is prepared by dissolving the following compounds in 1 liter of demineralized water: • 8.5 gram of Plate Count Broth (PCB) (Difco, cat. no: 275120); • 20 gram of NaCl (Merck, cat. no: 106404); • 0.042 gram of Bromocresol purple (Merck, cat. no: 103025). Escherichia coli strain ATCC 11303 was grown using well-known methods. The test medium was prepared by adding Escherichia coli cells to the quinolone medium to a final concentration of approximately 10^5 cells/ml. The test was prepared by addition of 250 μl of medium containing the test organism in each test ampoule. Spiked samples were prepared by adding different concentrations of the quinolones described in Table 1 to demineralized water. 100 μl of the spiked sample was added to the test ampoule, a negative control (water without quinolones) was included. The tests were incubated at 37° C. for 4 hours and 45 minutes. The tests were read at the time the test incubated with the negative control sample (water without quinolones) changed color from purple to yellow.

[6] = system: Escherichia coli strain ATCC 11303; assay: Detection of quinolones in chicken muscle by solvent extraction, then liquid test (Example 7); format: cell-based; conditions: acetonitrile/acetone extraction
Description: Escherichia coli strain ATCC 11303 was grown using well-known methods. The test medium was prepared by adding Escherichia coli cells to the quinolone medium to a final concentration of approximately 10^5 cells/ml. The test was prepared by addition of 250 μl of medium containing the test organism in each test ampoule. Spiked samples were prepared by adding different concentrations of the quinolones described in Table 1 to demineralized water. 100 μl of the spiked sample was added to the test ampoule, a negative control (water without quinolones) was included. The tests were incubated at 37° C. for 4 hours and 45 minutes. The tests were read at the time the test incubated with the negative control sample (water without quinolones) changed color from purple to yellow. In this experiment a mixture of acetonitrile/acetone is used to extract antimicrobial compounds out of the sample, further the experiment is executed as described in Example 2. The sample is obtained as follows: • 1. Weigh out 4 g (±0.03) of sample into a 50 ml plastic disposable centrifuge tube; • 2. Add 10 ml acetonitrile/acetone 70:30 (v/v); • 3. […] Homogenize for 30-40 seconds using an Ultra Turrax; • 5. Place in an ultrasonic bath for 5-10 minutes, then vortex mix for 30-40 seconds; • 6. Centrifuge for 10-12 minutes at 4200 G at 4° C.; • 7. […]

[7] = agar diffusion, Tsai and Kondo 2001; cited from earlier work

## CN1C[C@@H]2C[C@H]1CN2c1cc2c(cc1F)c(=O)c(C(=O)O)cn2C1CC1 [Danofloxacin]
[1]
  sensitivity: 8 ppb
[2]
  Lowest official MRL: 30 µg/kg

## CCN1CCN(c2cc3c(cc2F)c(=O)c(C(=O)O)cn3C2CC2)CC1 [Enrofloxacin]
[1]
  sensitivity: 6 ppb
[3]
  detection limit: 50 ppb
[4]
  sensitivity: 2 ppb

## CC1CCc2cc(F)cc3c(=O)c(C(=O)O)cn1c23 (centres unmarked) [Flumequin]
[5]
  Detection level: 100
[2]
  Lowest official MRL: 400 µg/kg
[6]
  concentration detected: 10 µg/kg

## CCn1cc(C(=O)O)c(=O)c2cc3c(cc21)OCO3 [Oxolinic acid]
[7]
  sensitivity: 200 ppb
[2]
  Lowest official MRL: 100 µg/kg
[6]
  concentration detected: 10 µg/kg

## O=C(O)c1cn(-c2ccc(F)cc2)c2cc(N3CCNCC3)c(F)cc2c1=O [Sarafloxacin]
[1]
  sensitivity: 15 ppb
[3]
  detection limit: 250 ppb
[2]
  MRL: 100 ppb
  Lowest official MRL: 10 µg/kg

## CN1CCN(c2cc3c(cc2F)c(=O)c(C(=O)O)cn3-c2ccc(F)cc2)CC1 [difloxacin]
[3]
  detection limit: 250 ppb
[2]
  MRL: 10 ppb
